# What was measured:
# CB1 receptor [1] = biological target: T1, CB1 receptor (Rattus norvegicus, UniProt P20272); test: Thermoregulation assay: hypothermia induced by the CB1 agonist CP55,940; format: in vivo; design: antagonized CB1 receptors in vivo; from tissue; host or cells: whole animal, male SD rats
# Method: Briefly, silicone coated temperature data loggers (SubCue Inc, Calgary, Canada) were surgically implanted into the abdominal cavity of male SD (450-500 g) rats under isoflurane anesthesia (4% induction; 2-2.5% maintenance). Rats were allowed to recover for 3 days before being acclimatized to testing and handling procedures for an additional seven days. Core body temperature readings were sampled every 5 min for 300 min during the course of each experiment.
# CB1 receptor [2] = biological target: T1, CB1 receptor; test: [3H]CP55,940 competitive binding assay, CB1 (rat brain membranes); design: membrane preparations from rat brain; from tissue; host or cells: rat brain membranes
# Method: Compounds were tested for their CB1 and CB2 receptor using membrane preparations from rat brain or HEK293 cells expressing hCB2 receptor, respectively, and [^3H]CP55,940 as previously described 1, 36-38. Stock solutions of the compounds (10 mM in DMSO) were diluted in TME buffer (50 mM Tris-HCL, 3 mM MgCl2, 100 mM NaCl, 0.2 mM EDTA, pH 7.4) with 0.1% BSA and transferred to 96 well plates containing [^3H]CP55,940 (specific activity 128 Ci/mmol; NIDA) at a final concentration of 0.76 nM. Non-specific binding was assessed in the presence of 100 nM CP55,940. The binding reaction was initiated with the addition of the respective membrane suspension (˜50 μg membrane protein) followed by incubation at 30° C. with gentle agitation in a shaking water bath for 60 minutes. […] The filter plates were washed with ice-cold wash buffer (50 mM Tris-base, 5 mM MgCl2 with 0.5% BSA) and bound radioactivity was determined using a Packard TopCount Scintillation Counter. The results were analyzed using nonlinear regression to determine the actual IC50 and the Ki values of the ligand (Prizm by GraphPad Software, Inc.). All data were in duplicate with IC50 and Ki values determined from at least two independent experiments.
# The affinity of a compound for CB1 vs. CB2 is determined by the ratio of the inhibitory constants (Ki), as determined by the competitive binding assay.
# Rats = test: Food intake studies using different diets; format: in vivo, rat; settings: 2.0, 4.0, 8.0 mg/kg IP 30 min prior; high-fat, high-carbohydrate, lab chow
# Excerpt: Animals were assigned to three different diet conditions (n=10/group). One group was assigned to a high-fat diet (HF; Diet # D12451, Research Diets, New Brunswick, N.J., 20% protein, 45% fat, 35% carbohydrate). A second group was given a high-carbohydrate diet (HC; Diet # D12450B, Research Diets, New Brunswick, N.J., 20% protein, 10% fat, 70% carbohydrate). The remaining group was fed a standard chow diet (LC, 5P00 Prolab RMH 3000, PMI Nutrition International, St. Louis, Mo.; 26% protein, 14% fat, 60% carbohydrate). Food blocks from each type of diet were nutritionally complete and similar in appearance and weight. Rats were given free access to lab chow in their home cages until the beginning of a five day habituation period. On the first day of habituation, rats were assigned to their respective dietary groups and moved into suspended wire mesh test cages containing their assigned food type. After spending 30 min in the test cage, they were returned to their home cages. After this initial habituation period, rats were given free access to lab chow in their home cages every Thursday afternoon through Monday afternoon. Each Tuesday and Wednesday, rats spent 30 min in the test cages with their assigned diets. On Thursdays, the injected animals were placed in the test cages with a pre-weighed amount of assigned food. A piece of cardboard was placed underneath the chamber to catch spillage. […]
# [3] = test system: Male Sprague-Dawley (SD) rats; test: Food intake studies (experiments A, B, C), food intake and body weight; format: in vivo, rat
# Method: All experimental protocols were approved by internal guidelines. Different concentrations of drugs were administered I.P. in a 1 ml kg-1 (milliliters per kilogram) volume, except M6G, which was given s.c. (subcutaneously) in a 0.1 ml kg-1 volume.
# Food and water were presented in inverted glass bottles that attached to the outside of the cage. Food was available for 18 h each day starting at 16:00 h (12 h light-dark cycle; lights off 16:00 h).
# Intake measurements were taken at 1.5 h, 3 h, 5 h, and 18 h after food became available.
# Rats were habituated to testing and handling procedures as before. […] Food intake and body weight were monitored daily.
# On the day of the experiment each rat received only a single injection, 30 min later food was made available as described in experiment 1. Food intake was measured 0.5, 1.5, 3, 5, and 18 h after administration. Food intake and body weight were monitored daily for five days after the experiment to assess the sustained effect of a single administration of each compound.
# adult male ferrets = test: Emesis studies: vomiting induced by the emetic M6G; format: in vivo, ferret; settings: for mean number of vomiting episodes±SEM: 60 min observation
# Method: Ferrets were lightly anaesthetized with halothane for each injection. Data were videotaped and analyzed by an observer blinded to the conditions of each treatment group. During 60 min of observation the number of vomiting (emetic) episodes were counted, and activity or sleeping time was noted. […] Each ferret acted as its own control, conditions were randomized via a counter balance design and separated by at least 14 days.
# [4] = experiment B, 5 mg kg-1 daily, day 4
# [5] = experiment B, 5 mg kg-1 daily, day 5
# T1 sequence (P20272 whole entry): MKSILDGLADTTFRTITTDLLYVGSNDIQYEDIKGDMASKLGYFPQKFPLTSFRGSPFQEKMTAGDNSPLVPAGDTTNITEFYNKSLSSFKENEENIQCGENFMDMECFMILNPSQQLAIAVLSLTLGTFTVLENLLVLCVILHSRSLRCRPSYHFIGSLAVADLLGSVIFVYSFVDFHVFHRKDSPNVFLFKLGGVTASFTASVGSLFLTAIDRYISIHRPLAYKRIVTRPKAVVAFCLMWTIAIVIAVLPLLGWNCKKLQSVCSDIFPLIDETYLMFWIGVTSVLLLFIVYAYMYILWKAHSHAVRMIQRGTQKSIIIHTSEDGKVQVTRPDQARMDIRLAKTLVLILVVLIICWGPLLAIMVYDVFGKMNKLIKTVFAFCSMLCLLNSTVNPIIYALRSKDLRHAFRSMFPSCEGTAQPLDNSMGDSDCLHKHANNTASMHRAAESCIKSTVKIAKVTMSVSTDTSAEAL
smiles,measurement,setting,value
Cc1c(C(=O)NN2CCCCC2)nn(-c2ccc(Cl)cc2Cl)c1-c1ccc(C#CCCC#N)cc1 [Compound 3],"hypothermic effect of CP55,940","CB1 receptor [1]; 5 mg kg-1 pre-treatment 45 min before CP55,940 0.3 mg kg-1, compared with vehicle",completely blocked
same,blood brain barrier passage,"CB1 receptor [1]; inferred from block of centrally mediated hypothermia, within a short period after administration",crosses the blood brain barrier
same,Ki,"CB1 receptor [2]; against [3H]CP55,940, rat brain membranes",0.89 ± 0.44 nM
same,selectivity for CB1 versus CB2 receptors,CB1 receptor [2]; ratio of Ki values,~100 fold
same,food intake over vehicle across all diet groups,Rats,significantly suppressed food intake
same,acute effect on food intake compared with vehicle,"[3]; experiment A, 5 mg kg-1 I.P. single dose",did not significantly reduced food intake
same,"food intake and weight gain, differences to vehicle treated rats","[3]; experiment B, 1 mg kg-1 daily",non significant
same,"food intake, difference compared with vehicle treated rats","[3]; experiment B, 5 mg kg-1 daily, day 3",-23.2 g
same,"food intake, difference compared with vehicle treated rats",[3]; [4],-20.4 g
same,"weight gain, difference to vehicle treated rats",[3]; [4],-15.6 g
same,"food intake, difference compared with vehicle treated rats",[3]; [5],-19.2 g
same,"weight gain, difference to vehicle treated rats",[3]; [5],-21.8 g
same,"weight gain, difference to vehicle treated rats","[3]; experiment B, 5 mg kg-1 daily, day 6",-23.7 g
same,food intake compared with vehicle,"[3]; experiment B, 1 and 5 mg kg-1 daily, first day of treatment",No significant reductions
same,differences in food intake,"[3]; experiment B, 1 and 5 mg kg-1 daily, second day of treatment",not statistically significant
same,"food intake, difference between the 1 mg kg-1 and 5 mg kg-1 doses","[3]; experiment B, daily treatment, day 3",-17.6 g
same,"weight gain, difference 5 mg kg-1 versus 1 mg kg-1","[3]; experiment B, daily treatment, day 4",-12.0 g
same,"food intake, difference compared with vehicle treated rats","[3]; experiment C, 10 mg kg-1 single dose, 3 h",-20.0 g
same,"food intake, difference compared with vehicle treated rats","[3]; experiment C, 10 mg kg-1 single dose, 5 h",-22.8 g
same,"food intake, difference compared with vehicle treated rats","[3]; experiment C, 10 mg kg-1 single dose, 18 h",-42.0 g
same,"food intake, difference compared with vehicle treated rats","[3]; experiment C, 10 mg kg-1 single dose, […]",-14.3 g
same,"food intake, difference compared with vehicle treated rats","[3]; experiment C, 20 mg kg-1 single dose, 3 h",-21.3 g
same,"food intake, difference compared with vehicle treated rats","[3]; experiment C, 20 mg kg-1 single dose, 5 h",-30.1 g
same,"food intake, difference compared with vehicle treated rats","[3]; experiment C, 20 mg kg-1 single dose, 18 h",-60.6 g
same,"food intake, difference compared with vehicle treated rats","[3]; experiment C, 20 mg kg-1 single dose, […]",-15.0 g
same,weight gain for several days after the experiment,"[3]; experiment C, single administration (Compound 1 5 mg kg-1; Compound 3 10, 20 mg kg-1)",significantly reduced
same,daily food intake after treatment relative to vehicle treated rats,"[3]; experiment C, single administration (Compound 1 5 mg kg-1; Compound 3 10, 20 mg kg-1), days after",reduced
same,"weight gain, difference between 10 mg kg-1 and 20 mg kg-1 treatment groups","[3]; experiment C, single dose, day 5",-12.3 g
same,mean number of vomiting episodes±SEM,adult male ferrets; 5 mg kg-1 I.P. 15 min before M6G,2.0±0.6
same,mean number of vomiting episodes±SEM,adult male ferrets; 10 mg kg-1 I.P. 15 min before M6G,2.0±0.4
same,mean number of vomiting episodes±SEM,adult male ferrets; 20 mg kg-1 I.P. 15 min before M6G,2.7±0.6
same,effect on number of vomiting episodes induced by M6G compared with vehicle,"adult male ferrets; Compound 3 5, 10, 20 mg kg-1, Compound 1 5 mg kg-1",did not significantly increase
